Experimental data published in patent publication US7737136B2 (N.V. Organon, priority 2002, dated 2010).

Columns and labels:
[1] = biological target: T1, human progesterone receptor-B (Homo sapiens, UniProt P06401); assay: Progesterone receptor-B transactivation assay, progestagenic (agonist) activity, CHO-PRB-pMMTV-LUC 1E2-A2 cells; type: cell-based; details: CHO cells stably transfected with human progesterone receptor-B and MMTV-luciferase reporter; read-out: Progestagenic activity EC50
T1 construct: expressed in transfected cells; host or cells: Chinese hamster ovary (CHO) cells, line CHO-PRB-pMMTV-LUC 1E2-A2
T1 sequence (P06401 1-933): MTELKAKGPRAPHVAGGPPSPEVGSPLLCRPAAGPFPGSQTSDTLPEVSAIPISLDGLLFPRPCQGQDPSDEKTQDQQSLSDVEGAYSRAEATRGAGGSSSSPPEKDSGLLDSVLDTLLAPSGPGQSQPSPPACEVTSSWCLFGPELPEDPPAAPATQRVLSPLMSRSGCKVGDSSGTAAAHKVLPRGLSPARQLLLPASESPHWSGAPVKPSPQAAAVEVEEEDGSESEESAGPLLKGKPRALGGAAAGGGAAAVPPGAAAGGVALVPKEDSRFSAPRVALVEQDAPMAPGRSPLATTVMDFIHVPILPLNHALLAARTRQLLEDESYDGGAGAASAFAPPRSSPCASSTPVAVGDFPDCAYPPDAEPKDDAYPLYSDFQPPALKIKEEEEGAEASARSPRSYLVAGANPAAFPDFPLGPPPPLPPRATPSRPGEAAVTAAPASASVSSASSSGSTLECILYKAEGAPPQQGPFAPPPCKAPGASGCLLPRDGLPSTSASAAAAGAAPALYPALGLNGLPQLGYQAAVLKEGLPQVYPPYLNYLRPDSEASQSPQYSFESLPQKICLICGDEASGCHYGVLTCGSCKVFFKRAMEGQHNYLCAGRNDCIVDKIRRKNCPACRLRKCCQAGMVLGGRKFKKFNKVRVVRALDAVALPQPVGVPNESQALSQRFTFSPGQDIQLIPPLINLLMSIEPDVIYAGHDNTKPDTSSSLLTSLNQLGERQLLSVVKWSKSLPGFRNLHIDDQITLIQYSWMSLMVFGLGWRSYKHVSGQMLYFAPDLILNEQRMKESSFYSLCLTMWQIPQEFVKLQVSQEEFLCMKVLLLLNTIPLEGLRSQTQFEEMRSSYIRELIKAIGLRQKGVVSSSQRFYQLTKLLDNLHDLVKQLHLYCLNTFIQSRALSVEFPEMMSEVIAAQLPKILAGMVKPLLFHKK
Protocol: (§1) The (anti-)progestagenic activity of a compound of the invention (EC 50 and intrinsic activity) was determined in an in vitro bioassay of Chinese hamster ovary (CHO) cells stably transfected with the human progesterone receptor-B expression plasmid and with a reporter plasmid in which the MMTV-promoter is linked to the luciferase reporter gene. […] The cells were cultured with charcoal-treated supplemented defined bovine calf serum from Hyclone (Utah, USA) in Dulbecco's Modified Eagles Medium/Nutrient Mixture F-12 (DMEM/HAM F12 in ratio 1:1) from Gibco (Paisley, UK).

[2] = biological target: T1, human progesterone receptor-B; assay: Progesterone receptor-B transactivation assay, antiprogestagenic activity (inhibition of luciferase transactivation induced by Org 2058); type: cell-based; details: in the presence of 1 nM (16α)-16-ethyl-21-hydroxy-19-norpregn-4-ene-3,20-dione (Org 2058); read-out: Anti-progestagenic activity EC50
Protocol: as §1

SMILES | EC50 [1] [nM] | EC50 [2] [nM]
O=C(N[C@H]1CCCN2c3cc(Cl)c(Cl)cc3Oc3ccccc3[C@H]12)C(F)(F)F (relative stereo) [Example 38A, trans-N-(7,8-Dichloro-2,3,4,14b-tetrahydro-1H-dibenzo[b,f]pyrido[1,2-d][1,4]oxazepin-1-yl)-2,2,2-trifluoroacetamide] | 10 to 100 | 100 to 10000
O=C(N[C@H]1CCCN2c3cc(Cl)c(Br)cc3Oc3ccccc3[C@H]12)C(F)(F)F (relative stereo) [Example 39, trans-N-(8-Bromo-7-chloro-2,3,4,14b-tetrahydro-1H-dibenzo[b,f]pyrido[1,2-d][1,4]oxazepin-1-yl)-2,2,2-trifluoroacetamide] | 100 to 10000 | 100 to 10000
COCCN[C@H]1CCCN2c3cc(Cl)ccc3Oc3ccccc3[C@H]12 (relative stereo) [Example 48, trans-7-Chloro-2,3,4,14b-tetrahydro-N-(2-methoxyethyl)-1H-dibenzo[b,f]pyrido[1,2-d][1,4]oxazepine-1-amine] | 100 to 10000 | 10 to 100
CC(C)(C)OC(=O)CN[C@H]1CCCN2c3cc(Cl)ccc3Sc3ccccc3[C@H]12 (relative stereo) [Example 49, 1,1-Dimetylethyl trans-2-[(7-chloro-2,3,4,14b-tetrahydro-1H-dibenzo[b,f]pyrido[1,2-d][1,4]thiazepin-1-yl)amino]acetate] | 100 to 10000 | 10 to 100

Further lines, results first:

EC50 [1] [nM] | EC50 [2] [nM] | SMILES
10 to 100 | 100 to 10000 | CC(=S)N[C@H]1CCCN2c3cc(Cl)ccc3Oc3ccccc3[C@H]12 (relative stereo) [Example 21]
10 to 100 | 10 to 100 | N=C(N[C@H]1CCCN2c3cc(Cl)ccc3Oc3ccccc3[C@H]12)C(F)(F)F (relative stereo) [Example 29, trans-N-(7-Chloro-2,3,4,14b-tetrahydro-1H-dibenzo[b,f]pyrido[1,2-d][1,4]oxazepin-1-yl)-2,2,2-trifluoroacetimidamide]
< 10 | < 10 | O=C(NC1CCCN2c3cc(Cl)ccc3Oc3ccccc3C12)C(F)F (stereo not drawn) [13 (1S14bR isomer)]
